In ChEMBL document CHEMBL5370599, “Discovery of a 53BP1 Small Molecule Antagonist Using a Focused DNA-Encoded Library Screen” (J Med Chem, 2023):

Assays:
[1] = molecular target: T1, TP53-binding protein 1 (Homo sapiens, UniProt Q12888); assay: Displacement of Biotin-p53K381acK382me2 from N-terminal his6-tagged 53BP1 (1484 to 1603 residues) (unknown origin) expressed in Rosetta2 BL21 (DE3) pLysS competent cells by TR-FRET assay; format: single protein
[2] = molecular target: T2, Chromodomain Y-like protein 2 (Homo sapiens, UniProt Q8N8U2); assay: Displacement of Biotin-p53K381acK382me2 from CDYL2 (unknown origin) by TR-FRET assay
T2 sequence (Q8N8U2 whole entry): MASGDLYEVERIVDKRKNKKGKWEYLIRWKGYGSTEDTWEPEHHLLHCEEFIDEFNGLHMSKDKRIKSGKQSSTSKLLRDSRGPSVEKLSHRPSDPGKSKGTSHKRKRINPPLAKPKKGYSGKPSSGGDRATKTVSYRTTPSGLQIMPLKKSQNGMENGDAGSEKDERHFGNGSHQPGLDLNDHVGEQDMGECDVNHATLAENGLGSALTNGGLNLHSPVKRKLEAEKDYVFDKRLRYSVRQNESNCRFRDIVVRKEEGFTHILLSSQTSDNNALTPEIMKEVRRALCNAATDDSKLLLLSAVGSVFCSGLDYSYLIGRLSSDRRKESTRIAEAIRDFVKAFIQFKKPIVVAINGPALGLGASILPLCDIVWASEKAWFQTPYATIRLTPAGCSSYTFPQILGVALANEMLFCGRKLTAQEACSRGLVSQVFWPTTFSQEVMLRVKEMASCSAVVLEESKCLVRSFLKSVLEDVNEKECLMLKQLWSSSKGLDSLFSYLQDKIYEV

[3] = molecular target: Histone-lysine N-methyltransferase SETDB1 (Homo sapiens, UniProt Q15047); assay: Displacement of Biotin-p53K381acK382me2 from SETDB1 tandem tudor domain (unknown origin) by TR-FRET assay
[4] = molecular target: T3, E3 ubiquitin-protein ligase UHRF1 (Homo sapiens, UniProt Q96T88); assay: Displacement of Biotin-p53K381acK382me2 from UHRF1 tandem tudor domain (unknown origin) by TR-FRET assay
T3 sequence (Q96T88 whole entry): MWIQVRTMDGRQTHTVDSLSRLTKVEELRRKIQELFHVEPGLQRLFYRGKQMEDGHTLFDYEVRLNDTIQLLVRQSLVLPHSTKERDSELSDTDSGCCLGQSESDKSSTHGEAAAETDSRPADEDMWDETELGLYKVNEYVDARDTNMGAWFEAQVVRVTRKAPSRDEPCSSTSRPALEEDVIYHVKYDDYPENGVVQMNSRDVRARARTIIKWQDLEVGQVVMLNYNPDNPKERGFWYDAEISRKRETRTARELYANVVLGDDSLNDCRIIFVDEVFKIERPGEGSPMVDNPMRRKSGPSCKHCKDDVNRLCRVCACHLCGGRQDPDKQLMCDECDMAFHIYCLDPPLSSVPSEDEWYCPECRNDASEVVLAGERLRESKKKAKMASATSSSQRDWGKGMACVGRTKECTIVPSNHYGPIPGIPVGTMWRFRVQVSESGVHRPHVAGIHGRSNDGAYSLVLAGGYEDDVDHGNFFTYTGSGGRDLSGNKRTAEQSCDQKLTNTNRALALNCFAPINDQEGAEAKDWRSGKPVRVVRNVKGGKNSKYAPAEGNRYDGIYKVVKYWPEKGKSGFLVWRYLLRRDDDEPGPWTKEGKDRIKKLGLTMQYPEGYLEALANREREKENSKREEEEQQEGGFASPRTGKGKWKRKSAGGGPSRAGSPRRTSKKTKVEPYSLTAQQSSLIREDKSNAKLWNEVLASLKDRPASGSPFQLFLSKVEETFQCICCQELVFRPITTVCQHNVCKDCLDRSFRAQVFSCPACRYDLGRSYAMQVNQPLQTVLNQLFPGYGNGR

[5] = molecular target: T4, Chromobox protein homolog 2 (Homo sapiens, UniProt Q14781); assay: Displacement of Biotin-p53K381acK382me2 from CBX2 chromodomain (unknown origin) by TR-FRET assay
T4 sequence (Q14781 whole entry): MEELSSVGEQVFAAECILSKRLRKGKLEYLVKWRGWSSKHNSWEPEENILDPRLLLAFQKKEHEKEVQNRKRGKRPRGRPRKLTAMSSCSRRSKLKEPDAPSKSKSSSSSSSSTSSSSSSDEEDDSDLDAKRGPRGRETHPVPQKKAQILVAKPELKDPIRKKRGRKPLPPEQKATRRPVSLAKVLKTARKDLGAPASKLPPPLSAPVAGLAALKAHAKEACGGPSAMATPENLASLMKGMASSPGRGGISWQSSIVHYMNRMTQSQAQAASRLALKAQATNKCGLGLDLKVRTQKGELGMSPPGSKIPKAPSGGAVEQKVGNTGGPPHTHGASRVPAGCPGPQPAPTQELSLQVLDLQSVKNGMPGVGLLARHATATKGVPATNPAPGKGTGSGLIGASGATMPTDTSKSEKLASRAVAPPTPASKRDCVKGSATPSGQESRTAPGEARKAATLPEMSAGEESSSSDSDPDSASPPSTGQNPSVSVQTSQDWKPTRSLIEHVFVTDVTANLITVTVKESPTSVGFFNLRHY

[6] = molecular target: T1, TP53-binding protein 1; conditions: filed as antagonist
Description: Binding affinity to N-terminal his6-tagged 53BP1 tandem tudor domain (1484 to 1603 residues) (unknown origin) expressed in Rosetta2 BL21 (DE3) pLysS competent cells assessed as change in enthalpy by differential scanning fluorimetry analysis

[7] = molecular target: T1, TP53-binding protein 1; assay: Binding affinity to N-terminal his6-tagged 53BP1 (1484 to 1603 residues) (unknown origin) expressed in Rosetta2 BL21 (DE3) pLysS competent cells assessed as dissociation constant by SPR analysis
[8] = Displacement of Biotin-p53K381acK382me2 from KDM7B (unknown origin) by TR-FRET assay; design: species or system Homo sapiens
[9] = molecular target: T1, TP53-binding protein 1; assay: Antagonist activity at nanoluc-tagged 53BP1 tandem tudor domain (unknown origin) transfected in HEK293T cells assessed as inhibition of 53BP1-H4 peptide interaction by nanoBRET assay; format: cell-based
[10] = molecular target: PHD finger protein 19 (Homo sapiens, UniProt Q5T6S3); assay: Displacement of Biotin-p53K381acK382me2 from PHF19 (unknown origin) by TR-FRET assay
[11] = test system: HEK-293T; assay: Cytotoxicity against HEK293T cells assessed as reduction in cell viability measured upto 200 uM by celltiterglo 2.0 assay; format: toxicity, cell-based; conditions: human
[12] = molecular target: T1, TP53-binding protein 1; assay: Binding affinity to N-terminal his6-tagged 53BP1 tandem tudor domain (1484 to 1603 residues) (unknown origin) expressed in Rosetta2 BL21 (DE3) pLysS competent cells assessed as dissociation constant by ITC analysis
[13] = molecular target: T5, M-phase phosphoprotein 8 (Homo sapiens, UniProt Q99549); assay: Displacement of Biotin-p53K381acK382me2 from MPP8 chromodomain (unknown origin) by TR-FRET assay
T5 sequence (Q99549 whole entry): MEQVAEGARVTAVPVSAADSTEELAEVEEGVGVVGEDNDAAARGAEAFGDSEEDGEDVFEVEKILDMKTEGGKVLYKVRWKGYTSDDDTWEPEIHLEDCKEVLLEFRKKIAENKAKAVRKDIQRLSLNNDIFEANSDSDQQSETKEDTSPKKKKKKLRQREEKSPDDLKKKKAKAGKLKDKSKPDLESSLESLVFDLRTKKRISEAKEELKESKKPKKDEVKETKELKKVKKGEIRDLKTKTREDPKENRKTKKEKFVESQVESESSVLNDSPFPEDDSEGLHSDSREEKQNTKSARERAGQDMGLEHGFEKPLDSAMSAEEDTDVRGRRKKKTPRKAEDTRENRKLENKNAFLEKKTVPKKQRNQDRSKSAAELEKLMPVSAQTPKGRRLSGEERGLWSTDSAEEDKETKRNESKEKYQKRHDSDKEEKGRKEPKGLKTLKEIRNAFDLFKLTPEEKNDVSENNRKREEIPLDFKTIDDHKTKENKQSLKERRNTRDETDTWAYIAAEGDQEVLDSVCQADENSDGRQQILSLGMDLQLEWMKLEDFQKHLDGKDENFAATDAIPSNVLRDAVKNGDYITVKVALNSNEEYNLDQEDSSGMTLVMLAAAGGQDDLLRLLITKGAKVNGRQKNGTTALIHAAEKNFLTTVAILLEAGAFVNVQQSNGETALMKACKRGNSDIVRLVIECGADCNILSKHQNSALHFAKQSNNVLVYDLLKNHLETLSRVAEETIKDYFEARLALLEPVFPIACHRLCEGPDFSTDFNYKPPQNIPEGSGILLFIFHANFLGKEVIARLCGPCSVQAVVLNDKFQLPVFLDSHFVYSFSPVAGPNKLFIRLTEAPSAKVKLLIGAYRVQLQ

[14] = test system: TERT-RPE1; assay: Cytotoxicity against human RPE-1 cells assessed as reduction in cell viability measured upto 200 uM by celltiterglo 2.0 assay; format: toxicity, cell-based; conditions: tert-rpe1, 200 µM
[15] = Kinetic solubility of compound by CLND analysis; format: physicochemical
[16] = test system: HEK-293T; assay: Cytotoxicity against HEK293T cells assessed as reduction in cell viability by celltiterglo 2.0 assay; format: toxicity, cell-based; conditions: human
[17] = test system: TERT-RPE1; assay: Cytotoxicity against human RPE-1 cells assessed as reduction in cell viability by celltiterglo 2.0 assay; format: toxicity, cell-based

T1 sequence (Q12888 whole entry, the tested form may be a part): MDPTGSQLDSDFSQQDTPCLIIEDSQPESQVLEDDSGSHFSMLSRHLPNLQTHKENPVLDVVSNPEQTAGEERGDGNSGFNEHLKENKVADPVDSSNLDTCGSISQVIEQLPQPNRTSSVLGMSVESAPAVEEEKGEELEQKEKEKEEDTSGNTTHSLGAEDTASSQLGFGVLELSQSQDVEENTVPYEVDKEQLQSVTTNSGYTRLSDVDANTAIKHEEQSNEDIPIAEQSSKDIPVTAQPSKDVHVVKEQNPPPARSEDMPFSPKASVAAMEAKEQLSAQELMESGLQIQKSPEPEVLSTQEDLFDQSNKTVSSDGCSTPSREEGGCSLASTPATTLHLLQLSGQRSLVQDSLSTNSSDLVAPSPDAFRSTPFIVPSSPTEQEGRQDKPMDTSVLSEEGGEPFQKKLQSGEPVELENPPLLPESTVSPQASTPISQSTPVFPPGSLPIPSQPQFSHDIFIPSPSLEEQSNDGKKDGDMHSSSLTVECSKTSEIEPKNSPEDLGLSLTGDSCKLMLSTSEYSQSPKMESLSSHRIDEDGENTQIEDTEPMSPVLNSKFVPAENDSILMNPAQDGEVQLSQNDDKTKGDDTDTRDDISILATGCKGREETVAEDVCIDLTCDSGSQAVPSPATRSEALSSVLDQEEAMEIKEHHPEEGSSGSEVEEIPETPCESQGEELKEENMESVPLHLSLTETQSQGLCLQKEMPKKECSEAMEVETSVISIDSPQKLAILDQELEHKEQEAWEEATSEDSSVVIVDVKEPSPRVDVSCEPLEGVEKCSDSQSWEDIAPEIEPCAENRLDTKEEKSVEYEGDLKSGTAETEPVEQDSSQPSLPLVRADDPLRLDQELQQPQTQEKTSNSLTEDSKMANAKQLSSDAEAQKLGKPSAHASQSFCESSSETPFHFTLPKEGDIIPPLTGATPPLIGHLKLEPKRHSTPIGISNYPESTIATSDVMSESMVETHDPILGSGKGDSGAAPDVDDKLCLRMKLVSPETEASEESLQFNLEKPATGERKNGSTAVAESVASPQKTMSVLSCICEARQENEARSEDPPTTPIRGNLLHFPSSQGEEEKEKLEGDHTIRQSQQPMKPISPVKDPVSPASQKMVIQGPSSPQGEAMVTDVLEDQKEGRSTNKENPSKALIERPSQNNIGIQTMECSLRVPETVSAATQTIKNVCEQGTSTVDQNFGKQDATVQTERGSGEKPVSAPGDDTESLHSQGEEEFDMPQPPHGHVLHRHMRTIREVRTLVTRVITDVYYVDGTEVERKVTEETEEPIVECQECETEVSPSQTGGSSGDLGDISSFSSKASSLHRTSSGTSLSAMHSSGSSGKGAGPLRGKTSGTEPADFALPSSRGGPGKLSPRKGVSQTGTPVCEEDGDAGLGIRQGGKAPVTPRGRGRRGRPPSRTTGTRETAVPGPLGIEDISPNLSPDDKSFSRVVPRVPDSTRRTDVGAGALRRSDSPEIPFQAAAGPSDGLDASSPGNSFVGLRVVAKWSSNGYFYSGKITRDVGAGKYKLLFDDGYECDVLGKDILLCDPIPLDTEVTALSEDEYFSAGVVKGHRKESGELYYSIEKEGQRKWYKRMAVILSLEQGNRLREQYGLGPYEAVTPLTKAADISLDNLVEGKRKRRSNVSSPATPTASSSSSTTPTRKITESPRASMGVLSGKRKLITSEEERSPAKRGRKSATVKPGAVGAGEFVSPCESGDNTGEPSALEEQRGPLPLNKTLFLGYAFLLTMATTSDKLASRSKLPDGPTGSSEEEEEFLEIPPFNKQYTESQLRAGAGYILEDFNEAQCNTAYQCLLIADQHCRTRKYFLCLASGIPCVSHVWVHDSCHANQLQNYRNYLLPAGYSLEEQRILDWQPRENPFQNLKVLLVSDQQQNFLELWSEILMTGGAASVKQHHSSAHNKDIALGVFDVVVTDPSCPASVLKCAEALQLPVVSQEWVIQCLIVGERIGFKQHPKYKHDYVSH

Row | IC50 [1] | IC50 [2] | IC50 [3] | IC50 [4] | IC50 [5] | deltaH [6] | Kd [7] | IC50 [8] | IC50 [9] | IC50 [10] | Kd [12] | IC50 [13] | Kinetic_solubility [15] | Compound | Activity [11] | Activity [14] | Activity [16] | Activity [17]
1 | 0.47 µM | > 100 µM | > 100 µM | > 100 µM | > 100 µM | -9.2 kcal/mol | 0.79 µM | > 100 µM | 8.5 µM | > 100 µM | 0.85 µM | > 100 µM | 194 µM | CN1CCN(c2ccnc(C(=O)N3CCC[C@H](C(=O)Nc4cccc(-c5ccc(C(N)=O)cc5)c4)C3)c2)CC1 | Non-Toxic | Non-Toxic | – | –
2 | 0.46 µM | > 100 µM | > 100 µM | > 100 µM | > 100 µM | -5.8 kcal/mol | 0.17 µM | > 100 µM | 6.9 µM | > 100 µM | 0.41 µM | > 100 µM | 200 µM | CN1CCN(c2ccnc(C(=O)N3CCC[C@H](C(=O)Nc4cccc(-c5ccc6c(c5)C(=O)NC6)c4)C3)c2)CC1 | Non-Toxic | Non-Toxic | – | –
3 | – | – | – | – | – | – | – | – | – | – | – | – | – | O=C1NCc2ccc(-c3cccc(NC(=O)[C@H]4CCCN(C(=O)c5cc(N6CCCCC6)ccn5)C4)c3)cc21 | – | – | Toxic | Toxic
